These are literature values, as cited in patent EP3027215B1, “POWDER FORMULATION OF VALGANCICLOVIR” (Ali Raif Ilaç Sanayi ve Ticaret Anonim Sirketi, priority 2013, dated 2015).

For series [1] the following is noted: solid form, stored under room temperature conditions.
For series [2] the following is noted: at pH 7.0.

As for `CC(C)[C@H](N)C(=O)OCC(CO)OCn1cnc2c(=O)[nH]c(N)nc21.Cl` (stereo partly drawn) [Valganciclovir hydrochloride, L-Valine, 2-[(2-amino-1,6-dihydro-6-oxo-9H-purin-9-yl)methoxy]-3-hydroxypropyl ester, monohydrochloride], the “physical, chemical, and light stability” value in series [1] is given as “acceptable”. Further, the n-octanol-water partition coefficient in series [2] is recorded as 0.0095.
